Experimental data from paper PMC9271048, “Probing strigolactone perception mechanisms with rationally designed small-molecule agonists stimulating germination of root parasitic weeds” (Nature Communications, 2022).

Key:
[1] = system: ShHTL7S95C; assay: Hydrolysis reaction analysis with ShHTL7 S95C mutant; format: biochemical, Striga hermonthica; details: Supplementary Fig. 24a
Method: (§1) Compounds 4a, (R)- and (S)-4a, 4g-i, and rac-GR24 were dissolved in DMSO and prepared as stock solution ([…]) just before use. A 200 μL of the reaction solution consisting of PBS buffer (pH 7.3), 10 μM samples, and 10 μg recombinant ShHTL7 or its mutants was incubated at 30 °C for 30 min; with the reaction solution (200 μL) containing PBS buffer (pH 7.3) and 10 μM samples as the blank control[40],[52]. Subsequently, the reaction was terminated by adding 200 μL of methanol, and then the reaction mixture was shaken for 10 s and centrifuged at 5310 × g for 60 s. The supernatant was filtered and the remaining amount of samples was analyzed by HPLC. The relative percentages of hydrolysis were obtained by using the amount of compounds in blank control as reference.
Supplementary Fig. 24. a, Relative percentage of hydrolysis of compound 4g by ShHTL7S95A, ShHTL7S95C, and ShHTL7. b, LC-MS analysis of the full-length His-tagged ShHTL7 in native condition. c, LC-MS analysis of the full-length His-tagged ShHTL7S95A in native condition, the mass of 34699 Da (reduction of […] compared with that of ShHTL7) is the peak of ShHTL7S95A. d, LC-MS analysis of full-length His-tagged ShHTL7S95C in native condition, the mass increment of 18 Da […]

[2] = target: ShHTL7 (Striga hermonthica, UniProt A0A0M3PNA2); set-up: method as in PMID 30021834; details: microscale thermophoresis measurements; cited from earlier work
Chain of ShHTL7 (A0A0M3PNA2 entry or part of it): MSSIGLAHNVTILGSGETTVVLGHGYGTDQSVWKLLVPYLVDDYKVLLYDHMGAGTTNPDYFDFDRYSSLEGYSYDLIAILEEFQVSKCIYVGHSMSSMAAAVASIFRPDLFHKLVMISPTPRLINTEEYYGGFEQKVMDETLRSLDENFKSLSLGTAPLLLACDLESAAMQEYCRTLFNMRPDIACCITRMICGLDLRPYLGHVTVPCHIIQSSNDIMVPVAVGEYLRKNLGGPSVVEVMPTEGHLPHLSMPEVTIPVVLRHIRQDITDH

[3] = system: ShHTL7H246A; assay: Hydrolysis reaction analysis with ShHTL7 H246A mutant; format: biochemical, Striga hermonthica; details: Supplementary Fig. 20a
Method: as §1
Supplementary Fig. 20. Effect of key amino acid residues on the hydrolysis of ShHTL7 and binding affinity. a, Relative percentage of hydrolysis of compound (S)-4a by ShHTL7S95A, ShHTL7H246A, and ShHTL7. The error bar indicates SD (n = 3 biologically independent experiments). b, Competitive mutants of ShHTL7 inhibitory activity in YLG assay. Data are the means ± SD (n = 3 biologically independent experiments).
(1 picture or pasted object on this page, not shown here)

## CC1=CC(OC(=O)N2CCN(C(=O)COc3ccc(Br)cc3C)CC2)CC1=O (stereo not drawn) [4g]
[1]
  relative percentage of hydrolysis by ShHTL7S95C, source data average: 4.848%

## CC1=C[C@H](O/C=C2/C(=O)O[C@@H]3c4ccccc4C[C@H]23)OC1=O (racemic) [rac-GR24, reference compound]
[2]
  Kd: 920 ± 10 nM

## CC1=C[C@H](OC(=O)N2CCN(C(=O)COc3ccc(Br)cc3C)CC2)OC1=O [(S)-4a]
[3]
  relative percentage of hydrolysis by ShHTL7H246A, source data average: 0.5315%
